From ChEMBL document CHEMBL2417513, “Selective activity of 2,4-diaryl-1,2,3,4-tetrahydroquinolines on Trypanosoma cruzi epimastigotes and amastigotes expressing β-galactosidase” (Bioorg Med Chem Lett, 2013)
pIC50: −log10 of the molar value.

Tests used:
[1] = Cytotoxicity against mouse NCTC-929 cells at 256 uM after 48 hrs by resazurin based fluorescence assay; format: cell-based; settings: nctc-929, 48 h
Trypanosoma cruzi [2] = assay: Antiparasitic activity against epimastigotes of Trypanosoma cruzi CL Brener expressing Escherichia coli lacZ gene […] assessed as parasite growth inhibition at 32 uM after 72 hrs by colorimetric assay; format: functional; parameters: scale not given: the % may be the effect or the level left
Trypanosoma cruzi [3] = assay: Antiparasitic activity against epimastigotes of Trypanosoma cruzi CL Brener expressing Escherichia coli lacZ gene […] assessed as parasite growth inhibition after 72 hrs by colorimetric assay; format: functional, organism-based
[4] = Cytotoxicity against mouse NCTC-929 cells after 48 hrs by resazurin based fluorescence assay; format: cell-based; settings: for LC50: nctc-929, 48 h; for CC50 at 48 h: NCTC-929 cells, read-out: LC50
[5] = Selectivity index, ratio of LC50 for mouse NCTC-929 cells to IC50 for epimastigotes of Trypanosoma cruzi CL Brener; format: toxicity, cell-based; settings: read-out: Ratio LC50/IC50
Trypanosoma cruzi [6] = assay: Antiparasitic activity against amastigotes of Trypanosoma cruzi CL Brener expressing Escherichia coli lacZ gene infected in mouse NCTC-929 cells assessed as parasite growth inhibition at 2 uM after 7 days by colorimetric assay; format: functional; parameters: scale not given: the % may be the effect or the level left
Trypanosoma cruzi [7] = assay: Antiparasitic activity against amastigotes of Trypanosoma cruzi CL Brener expressing Escherichia coli lacZ gene infected in mouse NCTC-929 cells assessed as parasite growth inhibition after 7 days by colorimetric assay; format: functional, organism-based; settings: NCTC-929, 168 h
Trypanosoma cruzi [8] = assay: Antiparasitic activity against amastigotes of Trypanosoma cruzi CL Brener expressing Escherichia coli lacZ gene infected in mouse NCTC-929 cells assessed as parasite growth inhibition at 32 uM after 7 days by colorimetric assay; format: functional; parameters: scale not given: the % may be the effect or the level left
Trypanosoma cruzi [9] = assay: Antiparasitic activity against amastigotes of Trypanosoma cruzi CL Brener expressing Escherichia coli lacZ gene infected in mouse NCTC-929 cells assessed as parasite growth inhibition at 8 uM after 7 days by colorimetric assay; format: functional; parameters: scale not given: the % may be the effect or the level left
Trypanosoma cruzi [10] = assay: Antiparasitic activity against amastigotes of Trypanosoma cruzi CL Brener expressing Escherichia coli lacZ gene infected in mouse NCTC-929 cells assessed as parasite growth inhibition at 4 uM after 7 days by colorimetric assay; format: functional; parameters: scale not given: the % may be the effect or the level left
Trypanosoma cruzi [11] = assay: Antiparasitic activity against amastigotes of Trypanosoma cruzi CL Brener expressing Escherichia coli lacZ gene infected in mouse NCTC-929 cells assessed as parasite growth inhibition at 16 uM after 7 days by colorimetric assay; format: functional; parameters: scale not given: the % may be the effect or the level left
[12] = Selectivity index, ratio of LC50 for mouse NCTC-929 cells to IC50 for amastigotes of Trypanosoma cruzi CL Brener; format: toxicity, cell-based; settings: read-out: Ratio LC50/IC50
Trypanosoma cruzi [13] = assay: Antiparasitic activity against amastigotes of Trypanosoma cruzi CL Brener expressing Escherichia coli lacZ gene infected in mouse NCTC-929 cells assessed as parasite growth inhibition at 1 uM after 7 days by colorimetric assay; format: functional; parameters: scale not given: the % may be the effect or the level left
Trypanosoma cruzi [14] = assay: Antiparasitic activity against amastigotes of Trypanosoma cruzi CL Brener expressing Escherichia coli lacZ gene infected in mouse NCTC-929 cells assessed as parasite growth inhibition at 0.5 uM after 7 days by colorimetric assay; format: functional; parameters: scale not given: the % may be the effect or the level left

Row | Compound | Activity [1] | Activity (Trypanosoma cruzi [2]) [%] | pIC50 (Trypanosoma cruzi [3]) | LC50 [4] | selectivity ratio [5] | CC50 at 48 h [4] [µM] | Activity (Trypanosoma cruzi [6]) [%] | pIC50 (Trypanosoma cruzi [7]) | Activity (Trypanosoma cruzi [8]) [%] | Activity (Trypanosoma cruzi [9]) [%] | Activity (Trypanosoma cruzi [10]) [%] | Activity (Trypanosoma cruzi [11]) [%] | selectivity ratio [12] | Activity (Trypanosoma cruzi [13]) [%] | Activity (Trypanosoma cruzi [14]) [%]
1 | COc1ccc([C@@H]2c3ccc([N+](=O)[O-])cc3N[C@H](c3ccccc3)[C@H]2C)cc1 | 8.43% | 83.67 | > 5.10 | ND(Insoluble) | – | – | – | – | – | – | – | – | – | – | –
2 | COc1ccc([C@@H]2c3cc(N)ccc3N[C@H](c3ccccc3)[C@H]2C)cc1 | 85.85% | 97.06 | > 5.10 | – | > 1.19 | 9.56 | – | – | – | – | – | – | – | – | –
3 | COc1ccc([C@@H]2c3cccc(N)c3N[C@H](c3ccccc3)[C@H]2C)cc1 | 66.33% | 79.95 | > 5.10 | ND(Insoluble) | – | – | – | – | – | – | – | – | – | – | –
4 | COc1ccc([C@@H]2c3ccccc3N(Cc3ccccc3)C[C@H]2C)cc1 | 42.15% | 14.08 | – | ND(Insoluble) | – | – | – | – | – | – | – | – | – | – | –
5 | COc1ccc([C@@H]2c3cc(OC)ccc3N(Cc3ccccc3)C[C@H]2C)cc1 | 25.02% | 88.64 | 5.12 | – | > 33.4 | > 256 | 25.86 | 5.37 | 100 | 100 | 46.33 | 100 | > 59.9 | – | –
6 | COc1ccc([C@@H]2c3cc(Cl)ccc3N(Cc3ccccc3)C[C@H]2C)cc1 | ND(Insoluble) | 100 | 5.19 | – | 3.69 | 23.6 | – | – | – | – | – | – | – | – | –
7 | COc1cc([C@@H]2c3cccc([N+](=O)[O-])c3N[C@H](c3ccccc3)[C@H]2C)ccc1O | 84.75% | 86.78 | > 5.10 | – | – | < 8 | – | – | – | – | – | – | – | – | –
8 | COc1cc([C@@H]2c3ccccc3N[C@H](c3ccccc3)[C@H]2C)ccc1O | 84.12% | 86.23 | > 5.10 | – | > 1.63 | 13 | – | – | – | – | – | – | – | – | –
9 | COc1cc([C@@H]2c3cccc(C#N)c3N[C@H](c3ccccc3)[C@H]2C)ccc1O | 86.23% | 95.56 | 5.08 | – | 0.93 | 7.75 | – | – | – | – | – | – | – | – | –
10 | COc1cc([C@@H]2c3cccc([N+](=O)[O-])c3N[C@H](c3ccc(O)cc3)[C@H]2C)ccc1O | 85.46% | 99.73 | > 5.10 | – | > 1.79 | 14.4 | – | – | – | – | – | – | – | – | –
11 | COc1cc([C@@H]2c3cccc(N)c3N[C@H](c3ccccc3)[C@H]2C)ccc1O | 86.9% | 98.7 | > 5.10 | – | – | < 8 | – | – | – | – | – | – | – | – | –
12 | COc1cc([C@@H]2c3cccc(C#N)c3N[C@H](c3ccc(O)cc3)[C@H]2C)ccc1O | 85.83% | 98.75 | > 5.10 | – | 1.59 | 12.8 | – | – | – | – | – | – | – | – | –
13 | COc1cc([C@@H]2c3cccc([N+](=O)[O-])c3N[C@H](c3ccc([N+](=O)[O-])cc3)[C@H]2C)ccc1O | 87.71% | 92.82 | > 5.10 | – | – | < 8 | – | – | – | – | – | – | – | – | –
14 | COc1cc([C@@H]2c3cccc([N+](=O)[O-])c3N[C@H](c3ccccc3[N+](=O)[O-])[C@H]2C)ccc1O | ND(Insoluble) | 82.19 | – | – | – | 15.9 | – | – | – | – | – | – | – | – | –
15 | COc1cc([C@@H]2c3cccc(C#N)c3N[C@H](c3ccc([N+](=O)[O-])cc3)[C@H]2C)ccc1O | 48.76% | 66.81 | 5.36 | – | 48.6 | 213 | – | 5.12 | – | 51.5 | 33.77 | – | 27.8 | – | –
16 | COc1ccc([C@@H]2c3ccccc3N[C@H](c3ccccc3)[C@H]2C)cc1 | 43.05% | 95.98 | 5.23 | – | > 43.1 | > 256 | – | 5.15 | 100 | 52.21 | – | 99.12 | > 36 | – | –
17 | CCc1ccc2c(c1)[C@@H](c1ccc(OC)cc1)[C@H](C)[C@@H](c1ccccc1)N2 | 0% | 95.85 | 5.44 | – | > 71.1 | > 256 | – | 5.15 | 63.72 | 58.63 | 19.11 | 47.35 | > 35.9 | – | –
18 | COc1ccc([C@@H]2c3cc(OC)ccc3N[C@H](c3ccccc3)[C@H]2C)cc1 | 0% | 53.99 | > 5.10 | – | > 32 | > 256 | – | > 5.10 | – | 58.12 | – | 60.71 | > 32 | – | –
19 | COc1ccc([C@@H]2c3cc([N+](=O)[O-])ccc3N[C@H](c3ccccc3)[C@H]2C)cc1 | ND(Insoluble) | 76.03 | > 5.10 | – | > 2 | 16 | – | – | – | – | – | – | – | – | –
20 | COc1ccc([C@@H]2c3cc(Cl)ccc3N[C@H](c3ccccc3)[C@H]2C)cc1 | 11.72% | 88.62 | 5.10 | ND(Insoluble) | – | – | – | – | – | – | – | – | – | – | –
21 | COc1ccc([C@@H]2c3cccc([N+](=O)[O-])c3N[C@H](c3ccccc3)[C@H]2C)cc1 | ND(Insoluble) | 87.22 | – | – | – | 28.4 | – | – | – | – | – | – | – | – | –
22 | COc1ccc([C@@H]2c3c(cccc3[N+](=O)[O-])N[C@H](c3ccccc3)[C@H]2C)cc1 | ND(Insoluble) | 78.69 | > 5.10 | – | > 3.45 | 27.6 | – | – | – | – | – | – | – | – | –
23 | O=C(Cn1ccnc1[N+](=O)[O-])NCc1ccccc1 [BENZNIDAZOLE] | 17.38% | 66.24 | 4.57 | – | > 9.44 | > 256 | 64.37 | 6.10 | 100 | 96.63 | 74.71 | 100 | > 320 | 55.64 | 41.64
